Experimental data from paper PMC4711283, “Immobilization of halophilic Aspergillus awamori EM66 exochitinase on grafted k-carrageenan-alginate beads” (3 Biotech, 2016).

Test system: T1, A. awamori EM66 exochitinase
T1 construct: native secreted enzyme from culture supernatant of honey isolate, partially purified by ethanol fractionation, free (not immobilised)
Assay: p-nitrophenol release at […] nm, Lineweaver-Burk plot
Assay type: biochemical, Aspergillus awamori
Conditions: free enzyme, partially purified; acetate buffer pH 5.0; 30 °C; apparent Km

- Km: 0.33 mg/mL
SMILES: CC(=O)N[C@H]1[C@H](Oc2ccc([N+](=O)[O-])cc2)O[C@H](CO)[C@@H](O)[C@@H]1O [PNP-β-GlcNAc, p-nitrophenyl-β-D-N-acetyl glucoseaminide]
